The values that follow are results of earlier work, collected in patent US20070021352A1, “PREVENTION AND TREATMENT OF HEARING DISORDERS” (Cypress Bioscience, Inc., priority 2005, published 2007).

For data set [1] the following is noted: elderly patients; preliminary results.
A further data set concerns cochlea. Particulars: guinea pig model; local administration.
For data set [2] the following is noted: normal, healthy volunteers; daily ingestion of 6.7 mmol; rifle noise six days per week for eight weeks; vs placebo (sodium aspartate).
The conditions of data set [3]: humans; daily ingestion of 122 mg for 10 days.

`CN(C)CCCC1(c2ccc(F)cc2)OCc2cc(C#N)ccc21` (stereo not shown) [citalopram, 1-[3-(dimethylamino)propyl]-1-(4-fluorophenyl)-1,3-dihydro-5-isobenzofurancarbonitrile]: in data set [1], the “impact on auditory processes” value is given as “positive impact on auditory processes in the elderly”.

As for `CCN(CC)CCn1c(=O)c(Cc2ccc(OC)cc2)nc2ccccc21` [caroverine, 1-[2-(diethylamino)ethyl]-3-[(4-methoxyphenyl)methyl]-2-(1H)-quinoxalinone], in the data set with cochlea, the “protection of cochlea from noise trauma” value was “protection of cochlea from noise trauma”. For `N[C@@H](CC(=O)[O-])C(=O)[O-].[Mg+2]` [magnesium aspartate], in data set [2], the permanent threshold shift entry is recorded as “significant effect on permanent threshold shift”. In the case of `[Mg]` [magnesium], the “noise-induced temporary threshold shift” value in data set [3] was “protect against noise-induced temporary threshold shift”.
